# Assay results published in the supplement of paper PMC10307832.
# What was measured:
# Assay in all cases: relative viability (nuclei count vs DMSO), 5 days (fraction); higher = more cells survive
# HCC-366 = tested on: HCC-366
# Summary of the method: (§1)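 Nuclei were stained with Hoechst during a one-step fixation (final 0.05% Triton X-100, 1% formaldehyde, 1 ug/ml Hoechst) carried out 5 days after dosing, then counted on 4× images. The cells, lung cancer lines in 1536-well plates, had been dosed by pin tool the day after seeding with one drug alone or a fixed anchor-drug dose plus five library-drug doses (not always all listed) in √10 steps. Relative viability is the nuclei count in treated wells divided by that in vehicle wells, and each value is the median of duplicate plates.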
# NCI-H3122 = tested on: NCI-H3122
# Summary of the method: as §1
# NCI-H1703 = tested on: NCI-H1703
# Summary of the method: as §1
# IA-LM = tested on: IA-LM
# Summary of the method: as §1
# Calu-6 = tested on: Calu-6
# Summary of the method: as §1
# HCC-44 = tested on: HCC-44
# Summary of the method: as §1
# EBC-1 = tested on: EBC-1
# Summary of the method: as §1
# A549 = tested on: A549
# Summary of the method: as §1
# NCI-H1299 = tested on: NCI-H1299
# Summary of the method: as §1
# NCI-H2085 = tested on: NCI-H2085
# Summary of the method: as §1
# LOU-NH91 = tested on: LOU-NH91
# Summary of the method: as §1
# NCI-H1437 = tested on: NCI-H1437
# Summary of the method: as §1
smiles,measurement,setting,value
O=c1cc(N2CCOCC2)oc2c(-c3cccc4c3sc3ccccc34)cccc12 + CS(=O)(=O)N1CCN(Cc2cc3nc(-c4cccc5[nH]ncc45)nc(N4CCOCC4)c3s2)CC1 [Pictilisib] (partner 1 µM),relative viability,HCC-366; first compound 0.01 µM,0.197
same,relative viability,HCC-366; first compound 0.03162 µM,0.154
same,relative viability,HCC-366; first compound 0.1 µM,0.1
same,relative viability,HCC-366; first compound 0.3162 µM,0.154
same,relative viability,HCC-366; first compound 1 µM,0.137
same,relative viability,NCI-H3122; first compound 0.01 µM,0.623
same,relative viability,NCI-H3122; first compound 0.03162 µM,0.553
same,relative viability,NCI-H3122; first compound 0.1 µM,0.651
same,relative viability,NCI-H3122; first compound 0.3162 µM,0.552
same,relative viability,NCI-H3122; first compound 1 µM,0.57
same,relative viability,NCI-H1703; first compound 0.01 µM,0.245
same,relative viability,NCI-H1703; first compound 0.03162 µM,0.221
same,relative viability,NCI-H1703; first compound 0.1 µM,0.223
same,relative viability,NCI-H1703; first compound 0.3162 µM,0.253
same,relative viability,NCI-H1703; first compound 1 µM,0.252
same,relative viability,IA-LM; first compound 0.01 µM,0.304
same,relative viability,IA-LM; first compound 0.03162 µM,0.34
same,relative viability,IA-LM; first compound 0.1 µM,0.271
same,relative viability,IA-LM; first compound 0.3162 µM,0.357
same,relative viability,IA-LM; first compound 1 µM,0.337
same,relative viability,Calu-6; first compound 0.01 µM,0.879
same,relative viability,Calu-6; first compound 0.03162 µM,0.917
same,relative viability,Calu-6; first compound 0.1 µM,1.06
same,relative viability,Calu-6; first compound 0.3162 µM,0.9
same,relative viability,Calu-6; first compound 1 µM,1.04
same,relative viability,HCC-44; first compound 0.01 µM,0.638
same,relative viability,HCC-44; first compound 0.03162 µM,0.659
same,relative viability,HCC-44; first compound 0.1 µM,1.87
same,relative viability,HCC-44; first compound 0.3162 µM,0.543
same,relative viability,HCC-44; first compound 1 µM,0.549
same,relative viability,EBC-1; first compound 0.01 µM,0.409
same,relative viability,EBC-1; first compound 0.03162 µM,0.35
same,relative viability,EBC-1; first compound 0.1 µM,0.338
same,relative viability,EBC-1; first compound 0.3162 µM,0.378
same,relative viability,EBC-1; first compound 1 µM,0.371
same,relative viability,A549; first compound 0.01 µM,0.582
same,relative viability,A549; first compound 0.03162 µM,0.526
same,relative viability,A549; first compound 0.1 µM,0.601
same,relative viability,A549; first compound 0.3162 µM,0.516
same,relative viability,A549; first compound 1 µM,0.599
same,relative viability,NCI-H1299; first compound 0.01 µM,0.922
same,relative viability,NCI-H1299; first compound 0.03162 µM,0.688
same,relative viability,NCI-H1299; first compound 0.1 µM,0.897
same,relative viability,NCI-H1299; first compound 0.3162 µM,0.816
same,relative viability,NCI-H1299; first compound 1 µM,0.801
same,relative viability,NCI-H2085; first compound 0.01 µM,0.469
same,relative viability,NCI-H2085; first compound 0.03162 µM,0.467
same,relative viability,NCI-H2085; first compound 0.1 µM,0.553
same,relative viability,NCI-H2085; first compound 0.3162 µM,0.464
same,relative viability,NCI-H2085; first compound 1 µM,0.405
same,relative viability,LOU-NH91; first compound 0.01 µM,0.476
same,relative viability,LOU-NH91; first compound 0.03162 µM,0.533
same,relative viability,LOU-NH91; first compound 0.1 µM,0.525
same,relative viability,LOU-NH91; first compound 0.3162 µM,0.514
same,relative viability,LOU-NH91; first compound 1 µM,0.531
same,relative viability,NCI-H1437; first compound 0.01 µM,0.455
same,relative viability,NCI-H1437; first compound 0.03162 µM,0.456
same,relative viability,NCI-H1437; first compound 0.1 µM,0.542
same,relative viability,NCI-H1437; first compound 0.3162 µM,0.478
same,relative viability,NCI-H1437; first compound 1 µM,0.412
CCN(CC)CCCCNc1ncc2cc(-c3cc(OC)cc(OC)c3)c(NC(=O)NC(C)(C)C)nc2n1 + CS(=O)(=O)N1CCN(Cc2cc3nc(-c4cccc5[nH]ncc45)nc(N4CCOCC4)c3s2)CC1 [Pictilisib] (partner 1 µM),relative viability,HCC-366; first compound 0.01 µM,0.102
same,relative viability,HCC-366; first compound 0.03162 µM,0.177
same,relative viability,HCC-366; first compound 0.1 µM,0.207
same,relative viability,HCC-366; first compound 0.3162 µM,0.164
same,relative viability,HCC-366; first compound 1 µM,0.176
same,relative viability,NCI-H3122; first compound 0.01 µM,0.618
same,relative viability,NCI-H3122; first compound 0.03162 µM,0.598
same,relative viability,NCI-H3122; first compound 0.1 µM,0.674
same,relative viability,NCI-H3122; first compound 0.3162 µM,0.64
same,relative viability,NCI-H3122; first compound 1 µM,0.592
same,relative viability,NCI-H1703; first compound 0.01 µM,0.233
same,relative viability,NCI-H1703; first compound 0.03162 µM,0.222
same,relative viability,NCI-H1703; first compound 0.1 µM,0.244
same,relative viability,NCI-H1703; first compound 0.3162 µM,0.213
same,relative viability,NCI-H1703; first compound 1 µM,0.252
same,relative viability,IA-LM; first compound 0.01 µM,0.329
same,relative viability,IA-LM; first compound 0.03162 µM,0.329
same,relative viability,IA-LM; first compound 0.1 µM,0.342
same,relative viability,IA-LM; first compound 0.3162 µM,0.333
same,relative viability,IA-LM; first compound 1 µM,0.265
same,relative viability,Calu-6; first compound 0.01 µM,1.01
same,relative viability,Calu-6; first compound 0.03162 µM,0.994
same,relative viability,Calu-6; first compound 0.1 µM,1.12
same,relative viability,Calu-6; first compound 0.3162 µM,1.09
same,relative viability,Calu-6; first compound 1 µM,0.87
same,relative viability,HCC-44; first compound 0.01 µM,0.687
same,relative viability,HCC-44; first compound 0.03162 µM,0.746
same,relative viability,HCC-44; first compound 0.1 µM,0.603
same,relative viability,HCC-44; first compound 0.3162 µM,0.635
same,relative viability,HCC-44; first compound 1 µM,0.451
same,relative viability,EBC-1; first compound 0.01 µM,0.369
same,relative viability,EBC-1; first compound 0.03162 µM,0.32
same,relative viability,EBC-1; first compound 0.1 µM,0.342
same,relative viability,EBC-1; first compound 0.3162 µM,0.37
same,relative viability,EBC-1; first compound 1 µM,0.293
same,relative viability,A549; first compound 0.01 µM,0.52
same,relative viability,A549; first compound 0.03162 µM,0.543
same,relative viability,A549; first compound 0.1 µM,0.562
same,relative viability,A549; first compound 0.3162 µM,0.621
same,relative viability,A549; first compound 1 µM,0.41
same,relative viability,NCI-H1299; first compound 0.01 µM,0.883
same,relative viability,NCI-H1299; first compound 0.03162 µM,0.845
same,relative viability,NCI-H1299; first compound 0.1 µM,0.851
same,relative viability,NCI-H1299; first compound 0.3162 µM,0.96
same,relative viability,NCI-H1299; first compound 1 µM,0.775
same,relative viability,NCI-H2085; first compound 0.01 µM,0.432
same,relative viability,NCI-H2085; first compound 0.03162 µM,0.46
same,relative viability,NCI-H2085; first compound 0.1 µM,0.233
same,relative viability,NCI-H2085; first compound 0.3162 µM,0.512
same,relative viability,NCI-H2085; first compound 1 µM,0.46
same,relative viability,LOU-NH91; first compound 0.01 µM,0.476
same,relative viability,LOU-NH91; first compound 0.03162 µM,0.494
same,relative viability,LOU-NH91; first compound 0.1 µM,0.611
same,relative viability,LOU-NH91; first compound 0.3162 µM,0.524
same,relative viability,LOU-NH91; first compound 1 µM,0.51
same,relative viability,NCI-H1437; first compound 0.01 µM,0.544
same,relative viability,NCI-H1437; first compound 0.03162 µM,0.482
same,relative viability,NCI-H1437; first compound 0.1 µM,0.424
same,relative viability,NCI-H1437; first compound 0.3162 µM,0.395
same,relative viability,NCI-H1437; first compound 1 µM,0.392
